Results reported in ChEMBL document CHEMBL1201862, “PubChem BioAssay data set” (2004).
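Tested at 5 concentrations; 48 h exposure; 96-well plates; endpoints linearly interpolated, else capped at highest concentration. The concentration for 50% growth inhibition is given as GI50.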 Activity calls are given as the source filed them. Rule as the data show it: active = GI50 up to about 1.1 µM and inactive = higher.

What was measured:
Assay in all cases: inhibition of tumour cell growth, NCI panel, 48 h
HT-29 = test system: HT-29
KM12 = test system: KM12
SK-MEL-2 = test system: SK-MEL-2
COLO 205 = test system: COLO 205
LOX IMVI = test system: LOX IMVI
U-251 = test system: U-251
NCI-H226 = test system: NCI-H226
M14 = test system: M14
HCC 2998 = test system: HCC 2998
NCI/ADR-RES = test system: NCI/ADR-RES
OVCAR-8 = test system: OVCAR-8
786-0 = test system: 786-0
MOLT-4 = test system: MOLT-4
BT-549 = test system: BT-549
SK-MEL-28 = test system: SK-MEL-28
HOP-92 = test system: HOP-92
SF-268 = test system: SF-268
EKVX = test system: EKVX
T47D = test system: T47D

Measured: GI50

COC(=O)Cc1c([C@H]2[C@H](CC(=O)OC)c3ccccc3N2S(=O)(=O)c2ccc(C)cc2)[nH]c2ccccc12
inactive: HT-29 > 100 µM | KM12 > 56.9 µM | SK-MEL-2 > 100 µM | COLO 205 > 100 µM | LOX IMVI > 100 µM | U-251 > 100 µM | NCI-H226 > 100 µM | M14 > 100 µM | HCC 2998 > 100 µM | NCI/ADR-RES > 100 µM | OVCAR-8 > 100 µM | 786-0 > 100 µM | MOLT-4 3.4 µM | BT-549 > 100 µM | SK-MEL-28 > 100 µM | HOP-92 > 100 µM | SF-268 > 100 µM

O=C1Nc2ccccc2/C1=N/Nc1c(F)c(F)c(F)c(F)c1F
inactive: HT-29 42.8 µM | KM12 16.1 µM | SK-MEL-2 > 100 µM | COLO 205 13.9 µM | LOX IMVI 31.2 µM | U-251 > 100 µM | NCI-H226 53 µM | M14 > 100 µM | HCC 2998 > 100 µM | NCI/ADR-RES 70.1 µM | OVCAR-8 41.9 µM | EKVX 35 µM | 786-0 22 µM | MOLT-4 12 µM | BT-549 > 100 µM | SK-MEL-28 > 100 µM | SF-268 49.5 µM | T47D 22 µM

Cc1cccc2c1c(=O)c1c(O)cc3c(c1n2C)C=CC(C)(C)O3
inactive: HT-29 9.1 µM | KM12 70.3 µM | SK-MEL-2 > 100 µM | COLO 205 33.7 µM | LOX IMVI > 100 µM | U-251 > 100 µM | NCI-H226 96.4 µM | M14 > 100 µM | HCC 2998 > 100 µM | NCI/ADR-RES > 100 µM | OVCAR-8 > 100 µM | EKVX 33.9 µM | 786-0 > 100 µM | MOLT-4 > 100 µM | BT-549 > 100 µM | SK-MEL-28 > 100 µM | HOP-92 > 100 µM | SF-268 > 100 µM

O=C1c2ccccc2-c2nc(-c3cccnc3)cc3c2c1nc1ccccc13
inactive: HT-29 > 100 µM | KM12 > 10 µM | SK-MEL-2 > 100 µM | COLO 205 > 100 µM | LOX IMVI 40.3 µM | U-251 > 100 µM | NCI-H226 > 100 µM | M14 14.3 µM | HCC 2998 > 100 µM | NCI/ADR-RES > 100 µM | OVCAR-8 > 100 µM | EKVX > 100 µM | 786-0 > 100 µM | MOLT-4 23.6 µM | BT-549 > 100 µM | SK-MEL-28 > 100 µM | HOP-92 > 100 µM | SF-268 > 100 µM

O=C(Cl)C1=C(c2ccccc2)C1c1ccccc1 (stereo unspecified)
inactive: HT-29 > 100 µM | KM12 > 100 µM | SK-MEL-2 > 100 µM | COLO 205 > 100 µM | LOX IMVI > 100 µM | U-251 > 100 µM | NCI-H226 > 100 µM | M14 > 100 µM | HCC 2998 > 100 µM | OVCAR-8 > 100 µM | EKVX > 100 µM | 786-0 > 100 µM | MOLT-4 > 100 µM | BT-549 > 100 µM | SK-MEL-28 > 100 µM | HOP-92 > 100 µM | SF-268 > 100 µM | T47D > 100 µM

CCOC(=O)[C@H](C)OC(=O)[C@@](C)(NC(=O)c1ccccc1C(=O)OC)[C@@H]1NC=C(C(=O)OC)CS1
inactive: HT-29 > 100 µM | KM12 > 100 µM | SK-MEL-2 > 100 µM | COLO 205 > 100 µM | U-251 > 100 µM | NCI-H226 > 100 µM | M14 > 100 µM | HCC 2998 > 100 µM | NCI/ADR-RES > 100 µM | OVCAR-8 > 100 µM | EKVX > 100 µM | 786-0 > 100 µM | MOLT-4 41.8 µM | BT-549 > 100 µM | SK-MEL-28 > 100 µM | SF-268 > 100 µM | T47D 91.2 µM

COC(=O)C1=C(O)C(C(=O)OC)[C@]2(O)[C@@H](C(=O)OC)[C@H]1[C@H](C)[C@@H](c1ccccc1)[C@@H]2C(=O)OC (stereo partly specified)
inactive: HT-29 > 100 µM | KM12 > 100 µM | SK-MEL-2 96.4 µM | COLO 205 77.3 µM | LOX IMVI 53.7 µM | U-251 > 100 µM | NCI-H226 78.9 µM | M14 88.1 µM | NCI/ADR-RES 40.7 µM | OVCAR-8 54.2 µM | EKVX 55.7 µM | 786-0 62.2 µM | MOLT-4 85.9 µM | BT-549 38.8 µM | SK-MEL-28 > 100 µM | SF-268 70.8 µM | T47D > 100 µM

CC1CCCOc2ccc(cc2)/C=N\c2ccc(cc2)CCc2ccc(cc2)/N=C\c2ccc(cc2)OCCC1
inactive: HT-29 > 100 µM | KM12 > 100 µM | SK-MEL-2 > 100 µM | COLO 205 > 100 µM | LOX IMVI > 100 µM | U-251 > 100 µM | NCI-H226 > 100 µM | M14 > 100 µM | HCC 2998 > 100 µM | NCI/ADR-RES > 100 µM | OVCAR-8 > 100 µM | EKVX > 100 µM | 786-0 > 100 µM | MOLT-4 > 100 µM | BT-549 > 100 µM | SK-MEL-28 > 100 µM | HOP-92 > 100 µM | SF-268 > 100 µM

Cc1ccc(-n2c(C)n[nH]c2=O)cc1
inactive: HT-29 > 100 µM | KM12 > 100 µM | SK-MEL-2 > 100 µM | COLO 205 > 100 µM | LOX IMVI > 100 µM | U-251 > 100 µM | M14 > 100 µM | HCC 2998 > 100 µM | NCI/ADR-RES > 100 µM | OVCAR-8 > 100 µM | EKVX > 100 µM | 786-0 > 100 µM | MOLT-4 > 100 µM | BT-549 > 100 µM | SK-MEL-28 > 100 µM | HOP-92 > 100 µM | SF-268 > 100 µM

COc1ccc([N+](=O)[O-])c2c(NCC(O)CO)ccnc12 (stereo unspecified)
inactive: HT-29 31.7 µM | KM12 37.8 µM | SK-MEL-2 23.1 µM | COLO 205 22.5 µM | LOX IMVI 36.1 µM | U-251 50.4 µM | M14 52.7 µM | HCC 2998 32.2 µM | OVCAR-8 50.4 µM | EKVX 16.1 µM | 786-0 67.6 µM | MOLT-4 38.9 µM | BT-549 20 µM | SK-MEL-28 > 100 µM | SF-268 35.9 µM | T47D 36.4 µM

Brc1ccc(/N=N/N2CCCC2)cc1
inactive: HT-29 > 100 µM | KM12 70.3 µM | SK-MEL-2 57.1 µM | COLO 205 > 100 µM | LOX IMVI 40.4 µM | U-251 89.1 µM | NCI-H226 > 100 µM | M14 > 100 µM | HCC 2998 40.6 µM | EKVX 66.7 µM | 786-0 > 100 µM | MOLT-4 28.6 µM | BT-549 44.6 µM | SK-MEL-28 > 100 µM | HOP-92 27.2 µM | SF-268 95.1 µM | T47D 14.4 µM
